Measured values reported in patent US20260285849A1, “METHYLOPHIOPOGONONE A DERIVATIVE, AND PREPARATION AND USE THEREOF” (INSTITUTE OF MATERIA MEDICA, CHINESE ACADEMY OF MEDICAL …, priority 2022, published 2026).
Like-named read-outs stand apart in the source and are kept apart here. Marks after values point to notes of the source that are not given here.

What was measured:
[1] = test system: mice with isoproterenol (ISO)-induced ischemic heart disease; experiment: ISO-induced ischemic heart disease mouse model: serum CK-MB (ELISA); type: in vivo
Protocol: (§1) Male C57BL/6 mice were allowed to acclimate to the environment and then randomly divided into 9 groups, namely the blank control group, the ISO model group, the ISO+diltiazem 20 mg/kg positive control drug group, the ISO+Formula I (0.1, 0.5, 2 mg/kg) groups, and the ISO+Formula II (0.1, 0.5, 2 mg/kg) groups. Mice in the drug administration groups were intragastrically administered the corresponding doses of Formula I and Formula II compounds once a day at the same time. Mice in the positive drug diltiazem group were intragastrically administered the corresponding dose of diltiazem once a day. Mice in the blank control group and the model group were given the same amount of solvent (0.5% CMC-Na). The administration volume was 10 mL/kg, and the administration was continuous for 11 days.
(§2) From the 4th to the 10th day of drug administration, ISO modeling was carried out. The blank control group was subcutaneously injected with normal saline, and mice in the other groups were subcutaneously injected with ISO at a dose of 40 mg/kg (modeling was performed 2 hours after drug administration), for a total of 7 times.
Myocardial enzyme CK-MB detection: After the administration ended, blood was collected from the animals by enucleation. The blood was left to stand at room temperature for 2 hours, and then centrifuged at 3500 rpm for 20 minutes to separate the serum. The content of CK-MB in the serum was determined according to the instructions of the ELISA kit.

Rat H9C2 cardiomyocytes [2] = details: 50 μM Ang II 24 h, MTT 570 nm
Protocol: Rat H9C2 cardiomyocytes in the logarithmic growth phase were seeded at a density of 7×10^4 cells/mL into 96-well plates, with 100 μL per well. […] After 24 hours of culture, the drug treatment groups were respectively added with 50 μM Ang II and the corresponding concentration of the drug. The Ang II model group was added with 50 μM Ang II and an equal volume of DMSO, and the blank control group was added with an equal volume of DMSO. Then, the cells were cultured for another 24 hours. After removing the supernatant, 100 μL of MTT solution (0.5 mg/mL) was added to each well, and the plates were placed in an incubator for 4 hours. After removing the supernatant again, 150 μL of DMSO was added to each well, and the mixture was shaken and mixed evenly for 10 minutes. The absorbance was measured at 570 nm using a microplate reader to calculate the cell viability.
Cell viability (%)=[(As−Ab)/(Ac−Ab)]×100% • As: Experimental well (culture medium containing cells, MTT, Ang II); • Ac: Control well (culture medium containing cells, MTT, without Ang II); • Ab: Blank well (culture medium without cells, MTT, without Ang II).

Rat H9C2 cardiomyocytes [3] = details: 800 μM ISO 24 h, MTT 570 nm
Protocol: Rat H9C2 cardiomyocytes in the logarithmic growth phase were seeded into 96-well plates at a density of 7×10^4 cells/mL, with 100 μL per well. […] After 24 hours of culture, the drug groups were treated with 800 μM ISO and the corresponding concentrations of drugs. The ISO model group received 800 μM ISO and an equal volume of DMSO, and the blank control group received an equal volume of DMSO. The cells were then cultured for another 24 hours. After removing the supernatant, 100 μL MTT solution (0.5 mg/mL) was added to each well and incubated in the cell culture incubator for 4 hours. After removing the supernatant, 150 μL DMSO was added to each well, mixed by shaking for 10 minutes, and the absorbance was measured at 570 nm using a microplate reader to calculate cell viability. Cell viability (%)=[(As−Ab)/(Ac−Ab)]×100%. As: Experimental well (medium with cells, MTT, ISO); Ac: Control well (medium with cells, MTT, without ISO); Ab: Blank well (medium without cells, MTT, without ISO).

H9C2 cardiomyocytes [4] = details: 6 h hypoxia, 12 h reoxygenation, CCK 450 nm
Protocol: (§3) H9C2 cardiomyocytes in the logarithmic growth phase were seeded into 96-well plates at a density of 7×10^4 cells/mL, with 100 μL per well.
(§4) After 24 hours of culture, the culture medium of the H/R and drug-treated groups was replaced with serum-free glucose-free DMEM medium (100 μL per well). The cells were then placed in an anaerobic incubator and cultured under hypoxic conditions in a 37° C. cell culture incubator. After 6 hours, the supernatant of the H/R and drug-treated groups was removed and replaced with high-glucose medium containing 10% fetal bovine serum (100 μL per well). Each drug-treated group received the corresponding concentration of the drug, while the H/R model group and the blank control group received an equal volume of DMSO.
(§5) After removing the supernatant, 100 μL of CCK solution (the volume of CCK accounted for 10% of the DMEM culture medium volume) was added to each well. The cells were cultured in the cell culture incubator for 1 hour, and the absorbance was measured at 450 nm using a microplate reader to calculate the cell viability. Cell viability was calculated as follows: Cell viability (%)=(Experimental well-Blank well)/(Control well-Blank well)×100%.

[5] = test system: mice with isoproterenol (ISO)-induced ischemic heart disease; experiment: ISO-induced ischemic heart disease mouse model: myocardial tissue pathology (H&E); type: in vivo; details: for The number of animals with lesion degree + / The number of animals with lesion degree ++ / The number of animals with lesion degree +++ / The number of animals with lesion degree ++++ / The number of animals with lesion degree +++++ / The number of animals with lesion degree − / average score of myocardial tissue lesion degree: H&E; for pathological damage of myocardial tissue (H&E staining): three doses (0.1, 0.5, 2 mg/kg) by gavage
Protocol: as §1, §2
Pathological detection of myocardial tissue: After the experiment ended, the heart was washed with ice-cold physiological saline and dried with absorbent paper. It was then cut transversely into two halves. One-third of the part closer to the apex of the heart was fixed in a 4% paraformaldehyde solution. After dehydration with gradient ethanol and clearing with xylene, it was immersed in melted paraffin three times for embedding, 30 minutes each time. After embedding, continuous sections (about 4 μm thick) were made. Routine hematoxylin and eosin (H.E.) staining was performed. The pathological state of the myocardial tissue was observed under an optical microscope, photographed, and analyzed.
• −: No abnormalities were observed. • +: No myocardial tissue damage was seen. There was local hypertrophy of cardiomyocytes in the interventricular septum and papillary muscles, local edema and degeneration of cardiomyocytes, widening of the local muscle space in the lesion area, and mild non-specific inflammation in the interstitium. • ++: No obvious myocardial tissue damage (cardiomyocyte necrosis) was observed. There was local hypertrophy of cardiomyocytes in the interventricular septum and papillary muscles, local edema and degeneration of cardiomyocytes. Myofibril dissolution (disappearance of cross-striations) could be seen in local areas. The lesions were relatively limited and distributed in small foci. Non-specific inflammation was visible in the interstitium, and local fibrous tissue hyperplasia in the interstitium was noted. • +++: There was obvious hypertrophy of cardiomyocytes in the interventricular septum and papillary muscles, local edema and degeneration of cardiomyocytes. […] The lesion was limited to the subendocardium of the local interventricular septum (or papillary muscle), with a limited and small affected area. Non-specific inflammation was visible in the interstitium of the lesion area, and local fibrous tissue hyperplasia in the interstitium was noted. • ++++: The hypertrophy of cardiomyocytes in the interventricular septum and papillary muscles is remarkable. Locally, there is edema and degeneration of cardiomyocytes; there is obvious damage (necrosis of cardiomyocytes) in the myocardial tissue of the local interventricular septum and papillary muscles. The lesions are distributed in foci (or small patches), and the affected area is relatively large. […] Locally, there is edema and degeneration of cardiomyocytes; the damage (necrosis of cardiomyocytes) of the myocardial tissue of the local interventricular septum and papillary muscles is severe. The damage (necrosis) lesions are distributed in patches and are connected to each other. Transmural myocardial tissue damage of the interventricular septum and papillary muscles can be seen locally.

[6] = test system: mice with isoproterenol (ISO)-induced ischemic heart disease; experiment: ISO-induced ischemic heart disease mouse model: Ca2+ in myocardial tissue; type: in vivo
Protocol: as §1, §2
Calcium ion detection in myocardial tissue: After the experiment ended, some myocardial tissue was taken to prepare a 10% myocardial tissue homogenate with ultrapure water. The homogenate was centrifuged at 1200 rpm for 20 minutes at 4° C. to separate the supernatant of the myocardial tissue homogenate. The calcium ion content was determined according to the kit instructions; protein quantification was performed using the BCA protein assay method.

H9C2 cardiomyocytes [7] = experiment: cells; details: Rattus norvegicus, H9c2, read-out: Cell viability
Protocol: as §3, §4, §5

[8] = 0.1 mg/kg intragastric once a day 11 days
[9] = 0.5 mg/kg intragastric once a day 11 days
[10] = 2 mg/kg intragastric once a day 11 days

Cc1c(O)cc(O)c2c(=O)c(Cc3ccc4c(c3)OCO4)coc12 [Formula II, 3-(benzo[d][1,3]dioxol-5-ylmethyl)-5,7-dihydroxy-8-methyl-4H-chromen-4-one]
CK-MB [1, 8]: 15.48 ± 1.76 ng/mL
CK-MB [1, 9]: 12.89 ± 2.29 ng/mL
CK-MB [1, 10]: 12.91 ± 1.53 ng/mL
OD (Rat H9C2 cardiomyocytes [2]; 0.1 μM): 0.876 ± 0.044
OD (Rat H9C2 cardiomyocytes [2]; 0.3 μM): 0.791 ± 0.062
OD (Rat H9C2 cardiomyocytes [2]; 1 μM): 0.835 ± 0.052
OD (Rat H9C2 cardiomyocytes [2]; 3 μM): 0.785 ± 0.048
OD (Rat H9C2 cardiomyocytes [2]; 10 μM): 0.814 ± 0.053
OD (Rat H9C2 cardiomyocytes [3]; 0.1 μM): 0.964 ± 0.132
OD (Rat H9C2 cardiomyocytes [3]; 0.3 μM): 0.964 ± 0.031
OD (Rat H9C2 cardiomyocytes [3]; 1 μM): 0.904 ± 0.072^###&&
OD (Rat H9C2 cardiomyocytes [3]; 3 μM): 0.963 ± 0.064
OD (Rat H9C2 cardiomyocytes [3]; 5 μM): 0.784 ± 0.067
OD (Rat H9C2 cardiomyocytes [3]; 10 μM): 0.806 ± 0.067
OD (H9C2 cardiomyocytes [4]; 0.1 μM): 0.630 ± 0.070
OD (H9C2 cardiomyocytes [4]; 0.3 μM): 0.612 ± 0.059
OD (H9C2 cardiomyocytes [4]; 1 μM): 0.542 ± 0.075
OD (H9C2 cardiomyocytes [4]; 3 μM): 0.640 ± 0.070
OD (H9C2 cardiomyocytes [4]; 5 μM): 0.466 ± 0.023
OD (H9C2 cardiomyocytes [4]; 10 μM): 0.498 ± 0.071
The number of animals with lesion degree + ([5]; 0.1 mg/kg): 2
The number of animals with lesion degree ++ ([5]; 0.1 mg/kg): 4
The number of animals with lesion degree +++ ([5]; 0.1 mg/kg): 4
The number of animals with lesion degree ++++ ([5]; 0.1 mg/kg): 0
The number of animals with lesion degree +++++ ([5]; 0.1 mg/kg): 0
The number of animals with lesion degree − ([5]; 0.1 mg/kg): 0
average score of myocardial tissue lesion degree ([5]; 0.1 mg/kg): 2.20 ± 0.79
The number of animals with lesion degree + ([5]; 0.5 mg/kg): 3
The number of animals with lesion degree ++ ([5]; 0.5 mg/kg): 4
The number of animals with lesion degree +++ ([5]; 0.5 mg/kg): 3
The number of animals with lesion degree ++++ ([5]; 0.5 mg/kg): 0
The number of animals with lesion degree +++++ ([5]; 0.5 mg/kg): 0
The number of animals with lesion degree − ([5]; 0.5 mg/kg): 0
average score of myocardial tissue lesion degree ([5]; 0.5 mg/kg): 2.00 ± 0.82
The number of animals with lesion degree + ([5]; 2 mg/kg): 6
The number of animals with lesion degree ++ ([5]; 2 mg/kg): 1
The number of animals with lesion degree +++ ([5]; 2 mg/kg): 0
The number of animals with lesion degree ++++ ([5]; 2 mg/kg): 0
The number of animals with lesion degree +++++ ([5]; 2 mg/kg): 0
The number of animals with lesion degree − ([5]; 2 mg/kg): 4
average score of myocardial tissue lesion degree ([5]; 2 mg/kg): 0.73 ± 0.65
pathological damage of myocardial tissue (H&E staining) [5]: significantly improve the pathological damage of myocardial tissue
Ca^2+ [6, 8]: 0.046 ± 0.015 mmol/gprot
Ca^2+ [6, 9]: 0.054 ± 0.014 mmol/gprot
Ca^2+ [6, 10]: 0.059 ± 0.009 mmol/gprot
viability at 0.1 µM (H9C2 cardiomyocytes [7]): 60.5%
viability at 0.3 µM (H9C2 cardiomyocytes [7]): 58.8%
viability at 1 µM (H9C2 cardiomyocytes [7]): 52.1%
viability at 3 µM (H9C2 cardiomyocytes [7]): 61.5%
viability at 5 µM (H9C2 cardiomyocytes [7]): 44.8%
viability at 10 µM (H9C2 cardiomyocytes [7]): 47.9%

O=c1c(Cc2ccc3c(c2)OCO3)coc2cc(O)cc(O)c12 [Formula I]
CK-MB [1, 8]: 14.86 ± 2.90 ng/mL
CK-MB [1, 9]: 13.71 ± 2.75 ng/mL
CK-MB [1, 10]: 15.05 ± 2.49 ng/mL
OD (Rat H9C2 cardiomyocytes [2]; 0.1 μM): 0.809 ± 0.060
OD (Rat H9C2 cardiomyocytes [2]; 0.3 μM): 0.780 ± 0.046
OD (Rat H9C2 cardiomyocytes [2]; 1 μM): 0.791 ± 0.043
OD (Rat H9C2 cardiomyocytes [2]; 3 μM): 0.816 ± 0.035
OD (Rat H9C2 cardiomyocytes [2]; 10 μM): 0.823 ± 0.048
OD (Rat H9C2 cardiomyocytes [3]; 0.1 μM): 0.983 ± 0.144
OD (Rat H9C2 cardiomyocytes [3]; 0.3 μM): 0.929 ± 0.105
OD (Rat H9C2 cardiomyocytes [3]; 1 μM): 0.969 ± 0.065^###&&
OD (Rat H9C2 cardiomyocytes [3]; 3 μM): 0.926 ± 0.045
OD (Rat H9C2 cardiomyocytes [3]; 5 μM): 0.807 ± 0.088
OD (Rat H9C2 cardiomyocytes [3]; 10 μM): 0.839 ± 0.091^###&
OD (H9C2 cardiomyocytes [4]; 0.1 μM): 0.630 ± 0082
OD (H9C2 cardiomyocytes [4]; 0.3 μM): 0.628 ± 0.061
OD (H9C2 cardiomyocytes [4]; 1 μM): 0.576 ± 0.063
OD (H9C2 cardiomyocytes [4]; 3 μM): 0.620 ± 0.069
OD (H9C2 cardiomyocytes [4]; 5 μM): 0.566 ± 0.074^(p = 0.07)
OD (H9C2 cardiomyocytes [4]; 10 μM): 0.575 ± 0.091
The number of animals with lesion degree + ([5]; 0.1 mg/kg): 0
The number of animals with lesion degree ++ ([5]; 0.1 mg/kg): 2
The number of animals with lesion degree +++ ([5]; 0.1 mg/kg): 5
The number of animals with lesion degree ++++ ([5]; 0.1 mg/kg): 2
The number of animals with lesion degree +++++ ([5]; 0.1 mg/kg): 0
The number of animals with lesion degree − ([5]; 0.1 mg/kg): 0
average score of myocardial tissue lesion degree ([5]; 0.1 mg/kg): 3.00 ± 0.71
The number of animals with lesion degree + ([5]; 0.5 mg/kg): 2
The number of animals with lesion degree ++ ([5]; 0.5 mg/kg): 4
The number of animals with lesion degree +++ ([5]; 0.5 mg/kg): 4
The number of animals with lesion degree ++++ ([5]; 0.5 mg/kg): 0
The number of animals with lesion degree +++++ ([5]; 0.5 mg/kg): 0
The number of animals with lesion degree − ([5]; 0.5 mg/kg): 0
average score of myocardial tissue lesion degree ([5]; 0.5 mg/kg): 2.20 ± 0.79
The number of animals with lesion degree + ([5]; 2 mg/kg): 6
The number of animals with lesion degree ++ ([5]; 2 mg/kg): 3
The number of animals with lesion degree +++ ([5]; 2 mg/kg): 0
The number of animals with lesion degree ++++ ([5]; 2 mg/kg): 0
The number of animals with lesion degree +++++ ([5]; 2 mg/kg): 0
The number of animals with lesion degree − ([5]; 2 mg/kg): 1
average score of myocardial tissue lesion degree ([5]; 2 mg/kg): 1.20 ± 0.63
pathological damage of myocardial tissue (H&E staining) [5]: significantly improve the pathological damage of myocardial tissue
Ca^2+ [6, 8]: 0.050 ± 0.008 mmol/gprot
Ca^2+ [6, 9]: 0.046 ± 0.010 mmol/gprot
Ca^2+ [6, 10]: 0.058 ± 0.009 mmol/gprot
viability at 0.1 µM (H9C2 cardiomyocytes [7]): 60.6%
viability at 0.3 µM (H9C2 cardiomyocytes [7]): 60.3%
viability at 1 µM (H9C2 cardiomyocytes [7]): 55.4%
viability at 3 µM (H9C2 cardiomyocytes [7]): 59.6%
viability at 5 µM (H9C2 cardiomyocytes [7]): 54.4%
viability at 10 µM (H9C2 cardiomyocytes [7]): 55.3%
